US7064139B2, “Method for treating retroviral infections” (Uniroyal Chemical Company, Inc., priority 2001, dated 2006)
In brackets after ≈: the same amount, converted by molar mass.

Assays:
HIV-1 (IIIB) = assay: microbe, parasite or virus in culture; format: cell-based; conditions: for EC50 (ug/ml) HIV-1 / EC50: CEM cells, syncytium formation, day four post infection; for EC50: Human immunodeficiency virus 1, IIIB, CCRF-CEM, read-out: EC50 (ug/ml) HIV-1; for HIV-1 % Protection: protection of CEM cells against virus-induced cytopathicity at the concentration in the previous column
How it was run: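 Human T-lymphoblast CEM cells at roughly 300,000 cells per ml were infected with about 100 CCID50 of HIV-1 (IIIB). Then 100 μl of the infected suspension went into 200 μl microtiter wells holding 100 μl of 5-fold serial compound dilutions. Inhibition of syncytium formation was scored microscopically on day four post infection, and protection against virus-induced cytopathicity was recorded.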

Davis strain CMV = assay: Reduction of CMV-induced cytopathicity in HEL cells; format: cell-based, human cytomegalovirus (HCMV); conditions: HEL cells; for Antiviral % Inhibition Davis strain CMV: estimate of percent protection at the concentration in the previous column; for Antiviral EC50 (ug/ml) Davis strain CMV / EC50: virus-induced cytopathicity after seven days; for EC50: Human betaherpesvirus 5, 168 h, read-out: Antiviral EC50 (ug/ml) Davis strain CMV
How it was run: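 Confluent HEL cells were infected with 100 PFU/well CMV for 1–2 h, then washed and kept in MEM with 2% FCS and test compound. EC50 is the concentration cutting virus-induced cytopathicity by 50% versus untreated control at day 7. Where cytotoxicity interfered, percent protection at the stated concentration is given.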

HIV-2 (ROD) = assay: Inhibition of HIV-2 syncytium formation in CEM cells; format: cell-based; conditions: for EC50 (ug/ml) HIV-2 / EC50: CEM cells, syncytium formation, day four post infection; for HIV-2 % Protection: protection of CEM cells against virus-induced cytopathicity at the concentration in the previous column; for EC50: Human immunodeficiency virus 2, CCRF-CEM, read-out: EC50 (ug/ml) HIV-2
How it was run: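 Human T-lymphoblast CEM cells, suspended at roughly 300,000 cells per ml of culture medium, were infected with about 100 CCID50 of HIV-2 (ROD). Aliquots of 100 μl of infected cells were placed in 200 μl microtiter wells holding 100 μl of serial 5-fold compound dilutions, and syncytium formation was scored microscopically four days after infection.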

| SMILES | EC50 (ug/ml) HIV-1 (HIV-1 (IIIB)) | Antiviral EC50 (ug/ml) Davis strain CMV (Davis strain CMV) [µg/mL] | EC50 (ug/ml) HIV-2 (HIV-2 (ROD)) | EC50 (HIV-1 (IIIB)) [µg/mL] | EC50 (Davis strain CMV) [µg/mL] | EC50 (HIV-2 (ROD)) [µg/mL] | Antiviral % Inhibition Davis strain CMV (Davis strain CMV) [%] | HIV-2 % Protection (HIV-2 (ROD)) [%] | HIV-1 % Protection (HIV-1 (IIIB)) [%] |
| --- | --- | --- | --- | --- | --- | --- | --- | --- | --- |
| Cc1cc([N+](=O)[O-])ccc1CS(=O)(=O)c1c(C)ccc[n+]1[O-] [Compound 118] | >4 µg/mL | >5 | >4.0 µg/mL | – | – | – | 10.0 | 0.0 | – |
| Cc1ccc(C)c(C(C)S(=O)(=O)c2cccc(Cl)[n+]2[O-])c1 (stereo not drawn) [Compound 76] | 0.90 µg/mL (≈ 2.76 µM) | 9.1 | 2.4 µg/mL (≈ 7.37 µM) | – | – | – | – | – | – |
| Cc1ccc[n+]([O-])c1SCc1c(Cl)cccc1Cl [Compound 137] | >20 µg/mL | 28.0 | >20.00 µg/mL | – | – | – | – | 0.0 | 0.0 |
| Cc1ccc(C)c(C(C)S(=O)(=O)c2c(C)ccc[n+]2[O-])c1 (stereo not drawn) [Compound 71, 2-[1-(2,5-Dimethylphenyl)ethylsulfonyl]-3-methylpyridine N-oxide] | – | – | – | 0.05 (≈ 0.164 µM) | 3.2 (≈ 10.5 µM) | > 20 | – | 0.0 | – |
| COc1ccc(OC)c(CS(=O)(=O)c2cccc[n+]2[O-])c1 [Compound 47] | 10.00 µg/mL (≈ 32.3 µM) | >50 | 35.0 µg/mL (≈ 113 µM) | – | – | – | 20.0 | – | – |
| COc1ccc([N+](=O)[O-])cc1CS(=O)(=O)c1cccc[n+]1[O-] [Compound 20] | 7.00 µg/mL (≈ 21.6 µM) | 13.0 | 13.0 µg/mL (≈ 40.1 µM) | – | – | – | – | – | – |
| COc1ccc(C(c2ccccc2)S(=O)(=O)c2cccc[n+]2[O-])cc1OC (stereo not drawn) [Compound 61] | >4 µg/mL | 14.0 | >4.0 µg/mL | – | – | – | – | 6.0 | 0.0 |
| Cc1ccc[n+]([O-])c1S(=O)(=O)Cc1c(Cl)cccc1Cl [Compound 139] | >20 µg/mL | 43.0 | >20.00 µg/mL | – | – | – | – | 0.0 | 0.0 |
| COc1cc(CS(=O)(=O)c2cccc[n+]2[O-])cc(OC)c1OC [Compound 50] | ≧20 ug/ml | >50 | ≧20 ug/ml | – | – | – | 20.0 | 37.5 | 37.5 |
| Cc1ccc[n+]([O-])c1S(=O)(=O)C(C)c1ccccc1Cl (stereo not drawn) [Compound 120] | 3.30 µg/mL (≈ 10.6 µM) | 12.5 | >20.00 µg/mL | – | – | – | – | 0.0 | – |
| COc1ccc(Br)c(CS(=O)(=O)c2cccc[n+]2[O-])c1 [Compound 31] | 4.00 µg/mL (≈ 11.2 µM) | 10.0 | 9.0 µg/mL (≈ 25.1 µM) | – | – | – | – | – | – |
| Cc1ccc(CS(=O)(=O)c2cccc[n+]2[O-])c(C)c1 [Compound 52] | 6.00 µg/mL (≈ 21.6 µM) | 12.0 | 6.5 µg/mL (≈ 23.4 µM) | – | – | – | – | – | – |
| Cc1ccc(C)c(C(C)S(=O)(=O)c2cc(C)cc[n+]2[O-])c1 (stereo not drawn) [Compound 108, 2-[1-(2,5-Dimethylphenyl)ethylsulfonyl]-4-methylpyridine N-oxide] | – | – | – | 0.75 (≈ 2.46 µM) | 38 (≈ 124 µM) | ≥ 20 | – | 37.5 | – |
| Cc1ccc(C)c(C(C)S(=O)(=O)c2cc(C)cc(C)[n+]2[O-])c1 (stereo not drawn) [Compound 81] | ≧20 ug/ml | 8.6 | >20.0 µg/mL | – | – | – | – | 0.0 | 37.5 |
| O=S(=O)(c1ccc(Cl)c[n+]1[O-])C(Cl)c1ccccc1 (stereo not drawn) [Compound 114, 2-(Phenylchloromethylsulfonyl)-5-chloropyridine N-oxide] | – | – | – | > 0.8 | > 20 | > 0.8 | 20.0 | 0.0 | 0.0 |

More lines, main results first:

| EC50 (ug/ml) HIV-1 (HIV-1 (IIIB)) | Antiviral EC50 (ug/ml) Davis strain CMV (Davis strain CMV) [µg/mL] | EC50 (ug/ml) HIV-2 (HIV-2 (ROD)) | EC50 (HIV-1 (IIIB)) [µg/mL] | EC50 (Davis strain CMV) [µg/mL] | EC50 (HIV-2 (ROD)) [µg/mL] | SMILES | Antiviral % Inhibition Davis strain CMV (Davis strain CMV) [%] | HIV-2 % Protection (HIV-2 (ROD)) [%] | HIV-1 % Protection (HIV-1 (IIIB)) [%] |
| --- | --- | --- | --- | --- | --- | --- | --- | --- | --- |
| 20.00 µg/mL (≈ 72.1 µM) | >50 | 12.0 µg/mL (≈ 43.3 µM) | – | – | – | [O-][n+]1ccccc1[S+]([O-])Cc1ccc2c(c1)OCO2 (stereo not drawn) [Compound 96] | 0.0 | – | – |
| 40.00 µg/mL (≈ 144 µM) | 34.5 | 2.5 µg/mL (≈ 9.01 µM) | – | – | – | Cc1ccccc1C(C)S(=O)(=O)c1cccc[n+]1[O-] (stereo not drawn) [Compound 104] | – | – | – |
| – | – | – | 1.5 (≈ 4.56 µM) | > 5 | 1.9 (≈ 5.78 µM) | O=[N+]([O-])c1cc(CS(=O)(=O)c2cccc[n+]2[O-])ccc1Cl [Compound 64, 2-[[(4-chloro-3-nitrophenyl)methyl]sulfonyl]-pyridine-1-oxide] | 10.0 | – | – |
| >4 µg/mL | 3.6 | >4 µg/mL | – | – | – | N#CC(=Cc1ccccc1)Sc1cccc[n+]1[O-] [Compound 158] | – | 0.0 | 0.0 |
| 5.30 µg/mL (≈ 14.1 µM) | >20 | 3.4 µg/mL (≈ 9.06 µM) | – | – | – | O=S(=O)(Cc1ccccc1I)c1cccc[n+]1[O-] [Compound 44] | 20.0 | – | – |
| ≧20 ug/ml | >50 | 4.0 µg/mL (≈ 15.9 µM) | – | – | – | [O-][n+]1ccccc1[S+]([O-])Cc1ccc(F)cc1 (stereo not drawn) [Compound 92] | 10.0 | – | 37.5 |
| 7.00 µg/mL (≈ 25.5 µM) | >5 | 9.5 µg/mL (≈ 34.6 µM) | – | – | – | N#Cc1ccccc1CS(=O)(=O)c1cccc[n+]1[O-] [Compound 24] | 30.0 | – | – |
| 2.40 µg/mL (≈ 9.53 µM) | >50 | >20.00 µg/mL | – | – | – | [O-][n+]1cccc(Cl)c1SCc1ccccc1 [Compound 132] | 0.0 | 0.0 | – |
| 13.00 µg/mL (≈ 49.4 µM) | 29.0 | 10.0 µg/mL (≈ 38 µM) | – | – | – | Cc1ccc(CS(=O)(=O)c2cccc[n+]2[O-])cc1 [Compound 11] | – | – | – |
